From article PMC10401713, “Silver(I)-Catalyzed Synthesis of Cuneanes from Cubanes and their Investigation as Isosteres” (Journal of the American Chemical Society, 2023)
In brackets after ≈: the same amount, converted by molar mass. Read-outs that look alike come from different tables or passages of the source. One block for each compound: values may come before it.

What was measured:
[1] = pKa in H2O by pH-metric titration (Sirius T3); type: physicochemical; conditions: water, average of 3 measurements
Protocol: (§1) 6. Physicochemical Measurements
(§2) The logP, pKa in H2O, and aqueous solubility were performed on a Sirius T3 instrument (Pion). The device consists of a pH-meter electrode, a robot that prepares the solutions needed to perform the measurements, and a UV-vis spectrophotometer. Basic titration is performed with a 0.5 M KOH buffer. Acidic titration is performed with a 0.5 M HCl buffer.
(§3) Log P was determined potentiometrically by using the "Shake flask" method, which consists of dissolving part of the solute in question in a volume of n-octanol and water, then performing pH […]
(§4) To obtain the pKa values, a pH-metric titration experiment was carried out. It can measure pKa values between 2 and 12. An acidic or base titrant was added to reach a starting pH at which the sample is ionized. Then, small volumes of 0.5 M HCl or KOH titrant were added and the pH was measured after each addition. Potentiometric measurement of basic compounds were done from pH 2 to pH 12 by adding 0.5 M KOH solution. Potentiometric measurement of acid ic compounds (20, S1, and 14) were done from pH 12 to pH 2 by adding 0.5 M HCl solution. Measurement points were done every 0.2 pH value. After each addition, the sample was stirred for 60 seconds and the pH value was then collected. The titration experiments were done 3 times and the stated values are averages of the 3 […]
(§5) (1 picture or pasted object on this page, not shown here)

[2] = Aqueous solubility (CheqSol method, Sirius T3); type: physicochemical; conditions: for solubility: water, aqueous buffer, thermodynamic from solid
Protocol: as §1
as §2, with “HCl buffer. […]” for “HCl buffer.”
as §5
Solubility measurements were performed using the CheqSol method developed by Pion.22 Because in most cases, compounds are more soluble at pH values where they ionized, the analyte was solubilized in acidic water before pH-titration was performed, measuring the UV-vis spectrum after each addition. The precipitation point was detected from the reduction of the light transmission during UV-vis measurement, or manually when not obvious. The pH-titration was repeated several times around the precipitation point to determine the solubility value by averaging. […]
aqueous solubility (mM) –a […]

[3] = logP measurement (Sirius T3, potentiometric shake-flask method, n-octanol/water); type: physicochemical; conditions: n-octanol and water
Protocol: as §1, §2, §3, §4, §5

[4] = Mouse liver microsome stability; type: in vitro ADME; conditions: CD1, mouse, liver microsomes, pH 7.4, 1 µM compound, 0.5 mg/mL protein, NADPH, 37 °C
Protocol: (§6) 7. Microsome Stability Measurements for the Cuneane Analog of Sonidegib Microsome stability measurements were performed by Sygnature Discovery (Nottingham, United […]
(§7) The microsomal stability of a test compound is assessed by spiking compound into tissue microsomes containing NADPH in buffer and sampling for up t o 1 h at 37 °C. Following protein precipitation and centrifugation, the samples are analy zed by UPLC-MS-MS.
(§8) To assess the metabolic stability of a test compound in tissue microsomes.
(§9) • Compound identifier and molecular formula
(§10) • 20 µL of 1 mM test compound in DMSO or 1 mg solid
(§11) Dilutions of a 1 mM test compound DMSO stock solution are prepared in 0.01 M phosphate buffered saline (pH7.4)) so that the final DMSO concentration is 0.1% and the final test compound concentration tested is 1 µM. Following addition of protein (0.5 mg/mL final) and NADPH, the samples are pre-incubated for 10 min prior to the start of the incubation by the addition of […]. The test compound will be incubated (n = 2; 1 µM final concentration) at 37 °C with tissue microsomes. […]
(§12) All the samples will be mixed, centrifuged and the supernatants analysed by UPLC-MS-MS.
(§13) The intrinsic clearance (Clint) and half-life (t1/2) values will be determined from the slope of the parent depletion curve. […]

[5] = Human liver microsome stability; type: in vitro ADME; conditions: liver microsomes, pH 7.4, 1 µM compound, 0.5 mg/mL protein, NADPH, 37 °C
Protocol: as §6, §7, §8, §9, §10, §11, §12, §13

[6] = parameters: method as in PMID 36763965; conditions: literature value; ref [8b]; cited from earlier work
[7] = parameters: method as in PMID 36763965; conditions: literature value; ref [8b]; cited from earlier work; remark: listed apart in the source
[8] = parameters: method as in PMID 36763965; conditions: literature value; ref [8b]; cited from earlier work; remark: listed apart in the source
[9] = parameters: method as in doi:10.1021/ja983441f; conditions: literature value; ref ([32]); cited from earlier work

pKa [1]: 3.96 ± 0.01 | solubility [2]: 149 mM (≈ 30.7 mg/mL) | logP [3]: 0.02 ± 0.01
Compound: COC(=O)C12C3C4C1C1C2C3C41C(=O)O (stereo not drawn) [S1]

pKa [1]: 3.99 ± 0.02 | solubility [2]: 210 mM (≈ 43.3 mg/mL) | logP [3]: 0.72 ± 0.01
Compound: COC(=O)C12C3C4C5C1C2C3C45C(=O)O (stereo not drawn) [compound 14]

aqueous solubility [2]: too low to be measured | logP [3]: 4.74 ± 0.23 | microsomal CLint at 1 µM [4]: 61 µL/min/mg | half-life at 1 µM ([4]; read-out: mouse liver microsome stability t1/2): 23 min | microsomal CLint at 1 µM [5]: 76 µL/min/mg | half-life at 1 µM ([5]; read-out: human liver microsome stability t1/2): 19 min
Compound: C[C@@H]1CN(c2ccc(NC(=O)C34C5C6C3C3C4C3(c3ccc(OC(F)(F)F)cc3)C65)cn2)C[C@H](C)O1 (stereo partly drawn) [compound 19]

pKa [1]: 3.84 ± 0.01 | solubility [2]: 1.38 mM (≈ 0.249 mg/mL) | logP [3]: 2.02 ± 0.02
Compound: COC(=O)c1ccc(C(=O)O)cc1 [compound 20, 4-(methoxycarbonyl)benzoic acid]

Compound: Cc1c(C(=O)Nc2ccc(N3C[C@@H](C)O[C@@H](C)C3)nc2)cccc1-c1ccc(OC(F)(F)F)cc1 [sonidegib]
aqueous solubility [6]: <1.6 × 10^–3 (ref [8b]) mM | human liver microsome stability Clint [7]: 20 µL/min/mg | human liver microsome stability t1/2 [7]: 70 min | mouse liver microsome stability Clint [8]: 26 µL/min/mg | mouse liver microsome stability t1/2 [8]: 53 min | logP [9]: 4.26 (ref ([32]))
